Series [1] concerns gastric carcinoma cells HGC-27. Put plainly: Inhibition against gastric carcinoma cells in varying concentrations. In kind it is cell-based. The following applies: two days. The method, then:
In a dish having a diameter of 3.5 cm, about 2×10^5 gastric carcinoma cells HGC-27 were spread and cultured. After one day, compound (1) was added to the culture in varying concentrations of 5, 10, 25, 50, and 75 μg/ml. The number of cells was counted after two days. The results are shown in FIG. 6 in which the number of cells is plotted relative to the concentration of compound (1).

In series [2] the test system is gastric carcinoma cells HGC-27. Put plainly: Inhibition against gastric carcinoma cells with time. In kind it is cell-based. The following applies: 25 μg/ml, number of cells with time. The method, then:
In a dish having a diameter of 3.5 cm, about 2×10^4 gastric carcinoma cells HGC-27 were spread and cultured. After one day, compound (1) was added to the culture in a concentration of 25 μg/ml and the number of cells was counted with the lapse of time. The results are shown in FIG. 5 in which the number of cells is plotted relative to the culturing time.

Series [3] relates to pancreatic carcinoma cells PANC-1. Put plainly: Inhibition against other carcinoma cells: PANC-1. It counts as cell-based, human. The note with it: PANC-1, 50 μg/ml. The method, then: (§1) Tested were three types of human carcinoma cells, pancreatic carcinoma cells PANC-1, cervical carcinoma cells HeLa, and neuroblastoma cells GOTO. For each type, about 2×10^5 cells were spread and cultured in a dish having a diameter of 3.5 cm. After one day, compound (1) was added to the culture in a concentration of 50 μg/ml. The number of cells was counted after two days.

The subject of series [4] is mouse skin two-stage carcinogenesis. Put plainly: Inhibition of promotion stage of mouse skin in vivo two-stage carcinogenesis (DMBA/TPA). Set-up: species or system ICR female mice. The following applies: 1 mg applied, twice a week, 1 μg TPA. The protocol:
A compound was examined whether it could inhibit the promotion stage of mouse skin in vivo two-stage carcinogenesis. More particularly, a group of 15 ICR female mice was tested by once applying 100 μg of DMBA as an initiator to the skin of each mouse for initiation of carcinogenesis and then applying a test solution (identified below) twice a week. Inhibition of carcinogenesis was examined during the test which continued for 18 weeks in total. The promoter used was TPA.
1 mg of compound (1) applied

In series [5] the test system is cervical carcinoma cells HeLa. Put plainly: Inhibition against other carcinoma cells: HeLa. In kind it is cell-based, human. The following applies: 50 μg/ml. The protocol:
as §1

Series [6] is described as follows: Solubility of compound (1). It counts as physicochemical.
Another series concerns HeLa cells. Put plainly: Anti-carcinogenesis-promoter action: inhibition of TPA-promoted phospholipid synthesis (32Pi uptake) in HeLa cells. The following applies: Homo sapiens, read-out: Inhibition (%) of cell phospholipid synthesis promotion by TPA. In kind it is cell-based. The method, then:
A sample (50 μg/ml) was added to HeLa cells on the second day of cultivation. After 24 hours, TPA (5×10^-8 M) and ^32 Pi (50 μci/culture) were added at the same time. After 4 hours, a phospholipid fraction was extracted to determine the radioactivity of ^32 Pi taken in the fraction.

For the next series, the system named is neuroblastoma cells GOTO. Put plainly: Inhibition against other carcinoma cells: GOTO. The note with it: 50 μg/ml. It counts as cell-based, human. The protocol: as §1
Series [7] in a line: in vivo. Set-up: species or system mice. The following applies: mouse, po.
Series [8] can be described thus: in vivo. Set-up: species or system rats. The note with it: rat, po.
Setting [9] is: Homo sapiens, 48 h, two days, read-out: Number of cells, Test group/Control.
The mark [10] stands for this setting: sample 50 μg/ml, TPA 5×10^-8 M, HeLa cells.

Where two headings read alike, the source gives them in different places. Some results are limits rather than exact numbers.

Take `CCCCCc1oc(C)c(OC)c(=O)c1O` [Compound (1), 3-hydroxy-6-methyl-5-methoxy-2-pentyl-4H-pyran-4-one]: in series [1] (5, 10, 25, 50, and 75 μg/ml), the “concentration dependence of inhibitory effect on gastric carcinoma cells HGC-27” value is “dependent on its concentration or dose”. Moreover, the minimal effective concentration in [1] (Homo sapiens, HGC-27, 48 h, 5 to 75 μg/ml, read-out: concentration with significant inhibitory effect on gastric carcinoma cells HGC-27) was not above 5 µg/mL. For the same compound, the “inhibition of propagation of gastric carcinoma cells HGC-27” value in series [2] was “fully effective in inhibiting the propagation”. The activity at 50 µg/mL worked out at 27.3% in series [3] (setting [9]); 42% in [5] (setting [9]); 44.3% in the series with neuroblastoma cells GOTO (Homo sapiens, Neuroblastoma cell, 48 h, two days, read-out: Number of cells, Test group/Control). Also, the entries for the “Number of cells (×10^5), Test group” value (in series [3] (two days (control 8.95)); in series [5] (two days (control 11.20)); with neuroblastoma cells GOTO (two days (control 10.95))) were 2.45 ×10^5, 4.70 ×10^5 and 4.85 ×10^5, respectively. For the same compound, the “average number of carcinomas per mouse” value in series [4] (18th week (control 2.38)) was found to be 0.22. Further, the “percentage of mice in which carcinomas developed” value in series [4] (18th week (control 50%)) was 13%. The “solubility in organic solvents” value in series [6] (methanol, acetone, chloroform, hexane, and ethyl acetate) was “soluble”. In addition, the solubility in water result in series [6] (water) is “difficultly soluble”. For the same compound, the inhibition (commonly the percentage by which the read-out fell short of the control) at 50 µg/mL in the series on HeLa cells (setting [10]) is 83%. The LD50 in the series “in vivo [7]” and in the series “in vivo [8]” was not below 1000 mg/kg each time.
Consider `CCCCCc1oc(C)c(OC)c(=O)c1OC` [Compound (2), 6-methyl-3,5-dimethoxy-2-pentyl-4H-pyran-4-one], for which the inhibition at 50 µg/mL in the series with HeLa cells (setting [10]) amounted to 65.3%.
On to `CCCCCc1oc(C)c(OC)c(=S)c1O` [Compound (3), 3-hydroxy-6-methyl-5-methoxy-2-pentyl-4H-pyran-4-thione], for which, in the series with HeLa cells (setting [10]), the inhibition at 50 µg/mL turned out to be 75%.
As for `CCCCCC1=NC(C)=C(OC)C(=O)C1O` (stereo not drawn) [Compound (4), 3-hydroxy-6-methyl-5-methoxy 2-pentyl-4-pyridone], the inhibition at 50 µg/mL in the series with HeLa cells (setting [10]) turned out to be 51.2%.
Regarding `CCCCCc1c(O)c(=O)c(OC)c(C)n1C` [Compound (5), 3-hydroxy-1,6-dimethyl-5-methoxy 2-pentyl-4-pyridone], in the series with HeLa cells (setting [10]), the inhibition at 50 µg/mL stood at 24.9%.
For `CCCCCc1c(O)c(=S)c(OC)c(C)n1C` [Compound (7), 3-hydroxy-1,6-dimethyl-5-methoxy-2-pentyl 4-pyridinethione], the inhibition at 50 µg/mL with HeLa cells (setting [10]) stood at 70.6%.
Consider `Cc1occc(=O)c1O` [Compound (8), 3-hydroxy-2-methyl 4H-pyran-4-one], for which the inhibition at 50 µg/mL in the series on HeLa cells (setting [10]) worked out at 3.1%.
In the case of `Cc1occc(=S)c1O` [Compound (9), 3-hydroxy-2-methyl-4H-pyran-4-thione], the inhibition at 50 µg/mL with HeLa cells (setting [10]) amounted to 0%.
Turning to `O=c1cc(C=Cc2ccccc2)occ1O` [Compound (10), 3-hydroxy-6-styryl-4H-pyran-4-one], in the series on HeLa cells (setting [10]), the inhibition at 50 µg/mL turned out to be 59.3%.
For the compound `COc1ccc(C=Cc2cc(=O)c(O)co2)cc1` [Compound (11), 3-hydroxy-6-(p-methoxystyryl)-4H-pyran-4-one], in the series with HeLa cells (setting [10]), the inhibition at 50 µg/mL is 72.2%.
`O=c1cc(C=Cc2ccc(Cl)cc2)occ1O` [Compound (12), 3-hydroxy-6-(p-chlorostyryl)-4H-pyran-4-one]: the inhibition at 50 µg/mL in the series with HeLa cells (setting [10]) worked out at 90%.
For `O=c1cc(CO)occ1O` [Compound (13), 5-hydroxy-2-hydroxymethyl-4H-pyran-4-one], in the series on HeLa cells, the inhibition at 50 µg/mL was found to be 1.6%.

For the origin of these results see patent US5093505A, “Novel heterocyclic compound, carcinostatic agent, and carcinoma controlling method” (Wakunaga Seiyaku Kabushiki Kaisha, priority 1989, dated 1992).
